Test results taken from US6620588B1, “Method of identifying inhibitors of topoisomerase DNA religation” (priority 2000, dated 2003).
Read-outs that look alike come from different tables or passages of the source.

How the values were obtained:
MCV-TOP = assay: Microtiter plate religation assay for MCV topoisomerase; assay type: biochemical, molluscum contagiosum virus
EU-TOPO = biological target: T1, EU-TOPO (Bos taurus, UniProt F1MN93); assay type: biochemical, mammalian; settings: for dependence of EU-TOPO inhibition on the base 3′ of the scissile phosphate: EU TG+P compared with EU TA+P substrate; for IC50: read-out: IC50, inhibition of religation by EU-TOPO
T1 construct: purchased Gibco-BRL
T1 sequence (F1MN93 entry or part of it): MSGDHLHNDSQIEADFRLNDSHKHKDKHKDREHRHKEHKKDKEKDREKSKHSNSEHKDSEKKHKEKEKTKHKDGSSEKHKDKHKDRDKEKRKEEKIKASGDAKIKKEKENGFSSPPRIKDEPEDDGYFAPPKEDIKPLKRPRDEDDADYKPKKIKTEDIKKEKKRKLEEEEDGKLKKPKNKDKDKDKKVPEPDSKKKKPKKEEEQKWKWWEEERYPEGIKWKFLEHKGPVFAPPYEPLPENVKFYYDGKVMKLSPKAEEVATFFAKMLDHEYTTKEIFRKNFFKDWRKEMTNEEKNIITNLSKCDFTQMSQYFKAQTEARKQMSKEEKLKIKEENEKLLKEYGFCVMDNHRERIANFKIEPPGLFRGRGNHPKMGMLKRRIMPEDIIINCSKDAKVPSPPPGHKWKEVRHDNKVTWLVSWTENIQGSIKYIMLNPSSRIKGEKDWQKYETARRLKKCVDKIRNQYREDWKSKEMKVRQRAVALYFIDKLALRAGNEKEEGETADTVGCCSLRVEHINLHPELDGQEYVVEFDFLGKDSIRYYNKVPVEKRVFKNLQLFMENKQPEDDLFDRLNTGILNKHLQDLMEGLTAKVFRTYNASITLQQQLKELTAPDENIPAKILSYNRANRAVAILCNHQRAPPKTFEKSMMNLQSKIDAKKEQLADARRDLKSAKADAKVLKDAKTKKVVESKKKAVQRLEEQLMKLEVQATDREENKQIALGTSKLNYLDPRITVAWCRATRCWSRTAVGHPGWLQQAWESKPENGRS
Text: The DNA substrate was designed to contain a preferred site for topoisomerase IB action identified in Tetrahymena DNA (A. H. Andersen, E. Gocke, B. J. Bonven, O. F. Nielsen and O. Westergaard. 1985. Topoisomerase I has a strong binding preference for a conserved hexadecameric sequence in the promoter region of the rRNA gene from Tetrahymena pyriformis. Nuc. Acids Res. 13, 1543-1556; B. J. Bonven, E. Bocke and O. Westergaard. 1985. A High Affinity Topoisomerase I Binding Sequence is Clustered at DNase I Hypersensitive Sites in Tetrahymena R-Chromatin. Cell 41, 541-551).
Two orders of addition were compared. Reactions were carried out in which enzyme was preincubated with inhibitor before addition of DNA substrate (FIG. 5, “complete”), which would reveal inhibition at any step in the reaction pathway. Reactions were also carried out in which covalent complexes were formed, then inhibitor added, followed by the religation strand (FIG. 5, “religation”). The latter order of addition tested inhibition of the religation step only.
For EU-TOPO, two different substrate DNAs were tested, containing TA or TG as the bases flanking the scissile phosphate. […] 1998. Molecular Modeling Studies of the DNA-Topoisomerase I Ternary Cleavable Complex with Camptothecin. J. Med. Chem. 41, 2216-2226), so such effects were sought to be discriminated using the microtiter assay.
Standard reaction mixture for assaying EU-TOPO contains 2.5 units EU-TOPO, 2 nM substrate oligonucleotide, 20 mM Tris-Cl (pH 8.0), 72 mM KCl, 5 mM MgCl2, 5 mM DTT and 10% DMSO. EU-TOPO was obtained from Gibco-BRL. The EU-TOPO suicide substrate was based on an optimal sequence found in a Tetrahymena rRNA gene (see FIG. 2B) (A. H. Andersen, E. Gocke, B. J. Bonven, O. F. Nielsen and O. Westergaard. 1985. Topoisomerase I has a strong binding preference for a conserved hexadecameric sequence in the promoter region of the rRNA gene from Tetrahymena pyriformis. Nuc. Acids Res. 13, 1543-1556; B. J. Bonven, E. Bocke and O. Westergaard. 1985. A High Affinity Topoisomerase I Binding Sequence is Clustered at DNase I Hypersensitive Sites in Tetrahymena R-Chromatin. Cell 41, 541-551).
After the topoisomerase reactions were completed, mixtures were adjusted to 20 mM Tris-Cl (pH 8.0), 400 mM NaCl, 10 mM EDTA, and 0.1 mg/ml sonicated salmon sperm DNA in a final volume of 100 μl. 400 mM NaCl was omitted in EU-TOPO assay. The samples were added to avidin-coupled microtiter wells (Boehringer Mannheim), which were then gently agitated at room temperature for 1 hr. Unbound DNA was removed by 3 washes (200 μl, 5 min each) with 30 mM NaOH, 200 mM NaCl, 1 mM EDTA. Bound DNA was then adjusted to 10 mM Tris-Cl (pH 8.0) and 1 mM EDTA. The relative topoisomerase activity was determined using an anti-digoxigenin ELISA. Anti-digoxigenin-peroxidase Fab fragments (0.01 units, Pierce or Boehringer Mannheim) were added into wells and incubated for 1 hr at 37° C. Unbound Anti-digoxigenin peroxidase Fab fragments were removed by 5 washes (300 μl) with PBS containing 0.1% Tween 20. Bound DNA was then incubated with 200 μl of 3,3′-5,5′-tetramethylbenzidine (TMB) solution (Boehringer Mannheim) until sufficient blue product accumulated. The reaction was terminated by adding 100 μl of 1 M sulfuric acid. The resulting yellow color was quantitated at 450 nm.

| Compound | activity against MCV-TOP (MCV-TOP; FIG. 5A) | dependence of EU-TOPO inhibition on the base 3′ of the scissile phosphate (EU-TOPO) | effect on MCV-TOP (MCV-TOP; in the concentration range of the EU-TOPO IC50s (nanomolar)) | IC50 (EU-TOPO; EU TA+P substrate (A/T base pair 3′ of the point of cleavage)) [µM] | IC50 (EU-TOPO; EU TG+P substrate (G/C base pair 3′ of the point of cleavage)) [µM] | inhibition of MCV-TOP, religation step (MCV-TOP; inhibitor added after covalent complex formation, FIG. 5A) | inhibition of MCV-TOP, complete reaction (MCV-TOP; inhibitor added to enzyme before DNA substrate, FIG. 5A) | inhibition of EU-TOPO (EU-TOPO; FIGS. 5B and 5C) | inhibition of EU-TOPO, complete reaction compared with religation (EU-TOPO; two orders of addition) |
| --- | --- | --- | --- | --- | --- | --- | --- | --- | --- |
| CC[C@@]1(O)C(=O)OCc2c1cc1n(c2=O)Cc2cc3ccccc3nc2-1 [Camptothecin] | not active | more efficient when the 3′ base was G |  |  |  |  |  |  |  |
| (−)-epigallocatechin 3-O-gallate [EGCG] |  | far more inhibitory on the DNA substrate containing a G/C base pair 3′ of the point of cleavage | no effect | 0.5 | 0.026 |  |  |  |  |
| Coumermycin A1 |  | not sensitive |  |  |  | not religation | inhibit the complete reaction | inhibited | comparable |
